The record followed here is paper PMC11209693 (ACS Omega, 2024).

Test [1] has as its target T1, pancreatic lipase (Homo sapiens, UniProt P16233).
T1 sequence (P16233 17-465): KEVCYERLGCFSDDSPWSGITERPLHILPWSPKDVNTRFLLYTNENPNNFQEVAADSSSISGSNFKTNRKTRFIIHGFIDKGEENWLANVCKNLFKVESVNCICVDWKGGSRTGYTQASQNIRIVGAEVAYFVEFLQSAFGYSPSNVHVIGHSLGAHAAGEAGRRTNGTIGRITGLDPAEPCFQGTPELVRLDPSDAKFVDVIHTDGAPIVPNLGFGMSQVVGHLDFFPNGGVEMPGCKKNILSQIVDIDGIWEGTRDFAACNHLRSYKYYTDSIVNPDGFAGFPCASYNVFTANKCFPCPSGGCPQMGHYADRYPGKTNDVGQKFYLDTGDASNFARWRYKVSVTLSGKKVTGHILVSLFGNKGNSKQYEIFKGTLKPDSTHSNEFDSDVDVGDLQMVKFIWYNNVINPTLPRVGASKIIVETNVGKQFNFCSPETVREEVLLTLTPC
In words: microscale thermophoresis. The format is binding. (In general: Microscale thermophoresis detects binding through changes in fluorescence in a small temperature gradient.)

For test [2], the target named is T2, pancreatic lipase (Sus scrofa, UniProt P00591).
T2 sequence (P00591 1-450): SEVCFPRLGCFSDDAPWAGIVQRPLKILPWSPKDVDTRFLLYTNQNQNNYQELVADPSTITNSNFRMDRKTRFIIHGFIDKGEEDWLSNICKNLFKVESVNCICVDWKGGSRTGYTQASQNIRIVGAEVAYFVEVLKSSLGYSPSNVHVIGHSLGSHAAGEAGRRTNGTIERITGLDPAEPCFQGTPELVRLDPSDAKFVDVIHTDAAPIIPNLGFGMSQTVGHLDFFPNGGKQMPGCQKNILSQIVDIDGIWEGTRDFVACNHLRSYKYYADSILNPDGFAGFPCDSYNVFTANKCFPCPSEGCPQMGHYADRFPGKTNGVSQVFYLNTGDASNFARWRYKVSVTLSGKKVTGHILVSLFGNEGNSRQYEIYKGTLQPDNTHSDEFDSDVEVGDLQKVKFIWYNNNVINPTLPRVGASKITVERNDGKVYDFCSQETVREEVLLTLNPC
Nature of the test: in vitro pancreatic lipase inhibition assay. The format is biochemical.

pIC50, pKd: −log10 of the molar value.

One may read the pKd as the negative decadic logarithm of the Kd, by convention in mol/L. Lower therefore signals a large Kd. Consider `COc1cc(/C=C/C(=O)CC(=O)/C=C/c2ccc(O)c(OC)c2)ccc1O` [A6, curcumin, reference compound], for which the negative logarithm of the Kd (pKd) in test [1] is 4.63. Usually pIC50 stands for the IC50 on a negative log10 scale, so that one unit is a factor of ten. A high value points to a small IC50. On to `O=C(CCc1ccc(O)cc1)CC(=O)CCc1ccc(O)cc1` [C4, 1,7-bis(4-hydroxyphenyl)heptane-3,5-dione], for which, in test [2], the negative-log IC50 (pIC50) is 4.37. In test [1], the pKd is 5.54. For `COc1cc(CCC(=O)CC(=O)CCc2ccc(O)c(OC)c2)ccc1O` [C6, 1,7-bis(4-hydroxy-3-methoxyphenyl)heptane-3,5-dione] the same measures were 4.01 and 4.74.
